Laboratory results published in US8802597B2, “Herbicidal pyrimidines” (E I du Pont de Nemours and Company, priority 2003, dated 2014).
Like-named read-outs stand apart in the source and are kept apart here.

Experiments:
Format in all cases: in vivo
[1] = test system: goosegrass (Eleusine indica); test: Test C pre/postemergence; conditions: Eleusine indica; for pest or weed control at 62 g/ha: 62 g ai/ha; for pest or weed control at 125 g/ha: 125 g ai/ha; for pest or weed control at 250 g/ha: 250 g ai/ha; for pest or weed control at 500 g/ha: 500 g ai/ha; for pest or weed control at 31 g/ha: 31 g ai/ha
Source text: (§1) Seeds or nutlets of plant species selected from bermudagrass (Cynodon dactylon), Surinam grass (Brachiaria decumbens), cocklebur (Xanthium strumarium), corn (Zea mays), crabgrass (Digitaria sanguinalis), woolly cupgrass (Eriochloa villosa), giant foxtail (Setaria faberii), goosegrass (Eleusine indica), johnsongrass (Sorghum halepense), kochia (Kochia scoparia), lambsquarters (Chenopodium album), morningglory (Ipomoea coccinea), eastern black nightshade (Solanum ptycanthum), yellow nutsedge (Cyperus esculentus), pigweed (Amaranthus retroflexus), common ragweed (Ambrosia elatior), soybean (Glycine max), common (oilseed) sunflower (Helianthus annuus), and velvetleaf (Abutilon theophrasti) were planted and treated preemergence with test chemicals formulated in a non-phytotoxic solvent mixture which included a surfactant.
(§2) At the same time, plants selected from these crop and weed species and also winter barley (Hordeum vulgare), blackgrass (Alopecurus myosuroides), canarygrass (Phalaris minor), chickweed (Stellaria media), downy brome (Bromus tectorum), green foxtail (Setaria viridis), Italian ryegrass (Lolium multiflorum), wheat (Triticum aestivum), wild oat (Avena fatua) and windgrass (Apera spica-venti) were treated with postemergence applications of some of the test chemicals formulated in the same manner. Plants ranged in height from 2 to 18 cm (1- to 4-leaf stage) for postemergence treatments. Plant species in the flooded paddy test consisted of rice (Oryza sativa), umbrella sedge (Cyperus difformis), duck salad (Heteranthera limosa) and barnyardgrass (Echinochloa crus-galli) grown to the 2-leaf stage for testing. Treated plants and controls were maintained in a greenhouse for 12 to 14 days, after which time all species were compared to controls and visually evaluated. Plant response ratings, summarized in Table C, are based on a scale of 0 to 100 where 0 is no effect and 100 is complete control. A dash (-) response means no test result.

[2] = test system: velvetleaf (Abutilon theophrasti); test: Test C pre/postemergence; conditions: Abutilon theophrasti; for pest or weed control at 62 g/ha: 62 g ai/ha; for pest or weed control at 125 g/ha: 125 g ai/ha; for pest or weed control at 250 g/ha: 250 g ai/ha; for pest or weed control at 500 g/ha: 500 g ai/ha; for pest or weed control at 31 g/ha: 31 g ai/ha
Source text: as §1, §2

[3] = test system: giant foxtail (Setaria faberii); test: Test C pre/postemergence; conditions: Setaria faberi; for pest or weed control at 125 g/ha: 125 g ai/ha; for pest or weed control at 500 g/ha: 500 g ai/ha; for pest or weed control at 62 g/ha: 62 g ai/ha; for pest or weed control at 250 g/ha: 250 g ai/ha; for pest or weed control at 31 g/ha: 31 g ai/ha
Source text: as §1, §2

[4] = test system: lambsquarters (Chenopodium album); test: Test C pre/postemergence; conditions: Chenopodium album; for pest or weed control at 62 g/ha: 62 g ai/ha; for pest or weed control at 125 g/ha: 125 g ai/ha; for pest or weed control at 250 g/ha: 250 g ai/ha; for pest or weed control at 500 g/ha: 500 g ai/ha; for pest or weed control at 31 g/ha: 31 g ai/ha
Source text: as §1, §2

[5] = test system: chickweed (Stellaria media); test: Test C postemergence; conditions: Stellaria media, post-emergence; for pest or weed control at 62 g/ha: 62 g ai/ha; for pest or weed control at 125 g/ha: 125 g ai/ha; for pest or weed control at 250 g/ha: 250 g ai/ha
Procedure, shortened: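 Test compounds, formulated in a non-phytotoxic solvent mix with surfactant, were applied to freshly planted seeds and, at the same time, to emerged plants at 1- to 4-leaf stage (2 to 18 cm). After 12 to 14 days in the greenhouse, response was scored visually versus controls, 0 = no effect, 100 = complete control.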

[6] = post-emergence, Postemergence, scale 0 to 100 (0 no effect, 100 complete control), read-out: Goosegrass plant response rating
[7] = post-emergence, Postemergence, scale 0 to 100, read-out: Plant response rating, Goosegrass
[8] = pre-emergence, Preemergence, scale 0 to 100, 0 no effect, 100 complete control, read-out: Plant response rating, Goosegrass
[9] = pre-emergence, Preemergence, scale 0 to 100, read-out: Plant response rating, Goosegrass
[10] = post-emergence, Postemergence, scale 0 to 100 (0 no effect, 100 complete control), read-out: Velvetleaf plant response rating
[11] = post-emergence, Postemergence, scale 0 to 100, read-out: Plant response rating, Velvetleaf
[12] = pre-emergence, Preemergence, scale 0 to 100, 0 no effect, 100 complete control, read-out: Plant response rating, Velvetleaf
[13] = pre-emergence, Preemergence, scale 0 to 100, read-out: Plant response rating, Velvetleaf
[14] = post-emergence, Postemergence, scale 0 to 100 (0 no effect, 100 complete control), read-out: Foxtail, Giant plant response rating
[15] = post-emergence, Postemergence, scale 0 to 100, read-out: Plant response rating, Foxtail, Giant
[16] = pre-emergence, Preemergence, scale 0 to 100, 0 no effect, 100 complete control, read-out: Plant response rating, Foxtail, Giant
[17] = pre-emergence, Preemergence, scale 0 to 100, read-out: Plant response rating, Foxtail, Giant
[18] = post-emergence, Postemergence, scale 0 to 100 (0 no effect, 100 complete control), read-out: Lambsquarters plant response rating
[19] = post-emergence, Postemergence, scale 0 to 100, read-out: Plant response rating, Lambsquarters
[20] = pre-emergence, Preemergence, scale 0 to 100, 0 no effect, 100 complete control, read-out: Plant response rating, Lambsquarters
[21] = pre-emergence, Preemergence, scale 0 to 100, read-out: Plant response rating, Lambsquarters
[22] = scale 0 to 100 (0 no effect, 100 complete control), read-out: Chickweed plant response rating
[23] = scale 0 to 100, read-out: Plant response rating, Chickweed

Structure (SMILES)	pest or weed control at 62 g/ha [1, 6]	pest or weed control at 125 g/ha [1, 6]	pest or weed control at 250 g/ha [1, 7]	pest or weed control at 62 g/ha [1, 8]	pest or weed control at 125 g/ha [1, 9]	pest or weed control at 250 g/ha [1, 9]	pest or weed control at 62 g/ha [2, 10]	pest or weed control at 125 g/ha [2, 10]	pest or weed control at 250 g/ha [2, 11]	pest or weed control at 62 g/ha [2, 12]	pest or weed control at 125 g/ha [2, 13]	pest or weed control at 250 g/ha [2, 13]	pest or weed control at 125 g/ha [3, 14]	pest or weed control at 62 g/ha [3, 14]	pest or weed control at 250 g/ha [3, 15]	pest or weed control at 62 g/ha [3, 16]	pest or weed control at 125 g/ha [3, 17]	pest or weed control at 250 g/ha [3, 17]	pest or weed control at 62 g/ha [4, 18]	pest or weed control at 125 g/ha [4, 18]	further results
Nc1nc(C2CC2)nc(C(=O)OCc2ccccc2)c1Br [Compound 22, phenylmethyl 6-amino-5-bromo-2-cyclopropyl-4-pyrimidinecarboxylate]	10%	10%	20%	0%	0%	80%	55%	60%	90%	90%	95%	100%	45%	40%	50%	10%	15%	20%	90%	95%	pest or weed control at 500 g/ha [1, 7]: 25%; pest or weed control at 500 g/ha [1, 9]: 100%; pest or weed control at 500 g/ha [2, 11]: 95%; pest or weed control at 500 g/ha [2, 13]: 100%; pest or weed control at 500 g/ha [3, 15]: 60%; pest or weed control at 500 g/ha [3, 17]: 60%; pest or weed control at 250 g/ha [4, 19]: 95%; pest or weed control at 500 g/ha [4, 19]: 95%; pest or weed control at 62 g/ha [4, 20]: 100%; pest or weed control at 125 g/ha [4, 21]: 100%; pest or weed control at 250 g/ha [4, 21]: 100%; pest or weed control at 500 g/ha [4, 21]: 100%; pest or weed control at 62 g/ha [5, 22]: 30%; pest or weed control at 125 g/ha [5, 22]: 60%; pest or weed control at 250 g/ha [5, 23]: 85%; pest or weed control at 500 g/ha ([5]; 500 g ai/ha, scale 0 to 100, read-out: Plant response rating, Chickweed): 90%
COC(=O)c1nc(C(C)C)nc(N)c1Br [Compound 3]	0%	0%	0%	0%	0%	0%	55%	55%	70%	0%	20%	35%	0%	0%	0%	0%	0%	0%	90%	90%	pest or weed control at 31 g/ha ([1]; post-emergence, Postemergence, read-out: Plant response rating (scale of 0 to 100), Goosegrass): 0%; pest or weed control at 31 g/ha [1, 8]: 0%; pest or weed control at 31 g/ha ([2]; post-emergence, Postemergence, read-out: Plant response rating (scale of 0 to 100), Velvetleaf): 25%; pest or weed control at 31 g/ha [2, 12]: 0%; pest or weed control at 31 g/ha ([3]; post-emergence, Postemergence, read-out: Plant response rating (scale of 0 to 100), Foxtail, Giant): 0%; pest or weed control at 31 g/ha [3, 16]: 0%; pest or weed control at 31 g/ha ([4]; post-emergence, Postemergence, read-out: Plant response rating (scale of 0 to 100), Lambsquarters): 75%; pest or weed control at 250 g/ha [4, 19]: 100%; pest or weed control at 31 g/ha [4, 20]: 0%; pest or weed control at 62 g/ha [4, 20]: 0%; pest or weed control at 125 g/ha [4, 21]: 0%; pest or weed control at 250 g/ha [4, 21]: 80%; pest or weed control at 31 g/ha ([5]; 31 g ai/ha, read-out: Plant response rating (scale of 0 to 100), Chickweed): 0%; pest or weed control at 62 g/ha [5, 22]: 0%; pest or weed control at 125 g/ha [5, 23]: 0%; pest or weed control at 250 g/ha [5, 23]: 40%
